Experiment [1] deals with T1, Discoidin domain-containing receptor 2 (Homo sapiens) (UniProt Q16832).
T1 sequence (whole entry): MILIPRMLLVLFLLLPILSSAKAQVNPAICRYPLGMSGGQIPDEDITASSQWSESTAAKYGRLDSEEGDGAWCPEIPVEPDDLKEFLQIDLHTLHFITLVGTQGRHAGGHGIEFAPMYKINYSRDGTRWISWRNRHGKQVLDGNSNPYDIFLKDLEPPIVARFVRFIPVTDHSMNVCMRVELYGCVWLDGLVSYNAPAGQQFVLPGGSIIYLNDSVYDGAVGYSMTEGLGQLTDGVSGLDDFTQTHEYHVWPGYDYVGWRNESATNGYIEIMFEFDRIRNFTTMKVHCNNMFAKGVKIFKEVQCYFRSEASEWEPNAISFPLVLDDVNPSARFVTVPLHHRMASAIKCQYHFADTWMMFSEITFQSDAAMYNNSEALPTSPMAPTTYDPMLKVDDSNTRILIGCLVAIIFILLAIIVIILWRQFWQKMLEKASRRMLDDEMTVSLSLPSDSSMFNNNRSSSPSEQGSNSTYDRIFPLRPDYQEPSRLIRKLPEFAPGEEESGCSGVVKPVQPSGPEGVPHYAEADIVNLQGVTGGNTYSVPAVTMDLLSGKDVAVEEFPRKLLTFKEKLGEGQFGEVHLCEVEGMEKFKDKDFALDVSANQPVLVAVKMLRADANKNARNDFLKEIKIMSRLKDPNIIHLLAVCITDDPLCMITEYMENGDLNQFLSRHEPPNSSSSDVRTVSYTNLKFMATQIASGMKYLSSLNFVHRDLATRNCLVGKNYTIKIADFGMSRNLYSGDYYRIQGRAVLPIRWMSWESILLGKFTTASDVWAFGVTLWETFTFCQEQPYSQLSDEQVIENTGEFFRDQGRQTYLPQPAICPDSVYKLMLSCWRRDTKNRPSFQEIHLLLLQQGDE
The experiment is described as follows: Selectivity interaction (LanthaScreen Eu Kinase Binding Assay) EUB0001632a DDR2. Particulars: at 10 µM.

For experiment [2], the target named is Mitogen-activated protein kinase kinase kinase kinase 5 (Homo sapiens) (UniProt Q9Y4K4). The experiment is described as follows: Selectivity interaction (Kinase panel (Z-LYTE Assay)) EUB0001632a MAP4K5. The note with it: at 10 µM.
Experiment [3] concerns the target T2, Homeodomain-interacting protein kinase 4 (Homo sapiens) (UniProt Q8NE63).
T2 sequence (whole entry): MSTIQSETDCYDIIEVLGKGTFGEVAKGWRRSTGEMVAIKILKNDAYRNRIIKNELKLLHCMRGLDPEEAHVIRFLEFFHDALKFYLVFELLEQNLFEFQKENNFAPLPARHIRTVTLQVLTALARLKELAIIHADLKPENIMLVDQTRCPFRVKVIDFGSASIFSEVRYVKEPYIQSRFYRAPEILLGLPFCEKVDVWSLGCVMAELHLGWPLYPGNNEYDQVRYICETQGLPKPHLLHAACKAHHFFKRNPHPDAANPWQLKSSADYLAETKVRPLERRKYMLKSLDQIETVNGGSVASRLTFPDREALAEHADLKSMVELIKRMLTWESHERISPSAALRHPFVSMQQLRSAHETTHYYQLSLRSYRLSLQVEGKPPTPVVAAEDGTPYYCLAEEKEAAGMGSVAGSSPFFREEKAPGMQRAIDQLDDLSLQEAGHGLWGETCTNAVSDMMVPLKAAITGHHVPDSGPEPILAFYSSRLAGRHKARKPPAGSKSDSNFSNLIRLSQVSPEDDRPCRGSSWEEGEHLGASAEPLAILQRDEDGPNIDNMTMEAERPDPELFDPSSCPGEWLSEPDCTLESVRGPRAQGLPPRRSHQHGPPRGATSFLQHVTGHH
The experiment is described as follows: Selectivity interaction (Ambit KINOMEscan and KiNATiv profiling in Jurkat cells) EUB0000090b HIPK4. It is filed as cell-based. Particulars: at 1 µM.

The target in experiment [4] is CDK9/cyclin T1 (Homo sapiens, UniProt P50750). The experiment is described as follows: Selectivity interaction (Radiometric kinase assay ) EUB0000090b CDK9. It is filed as protein-complex assay.
In experiment [5] the target is Glycogen synthase kinase-3 beta (Homo sapiens, UniProt P49841). In words: Selectivity interaction (KinomeScan (DiscoverX)) EUB0000607a GSK3B. Particulars: at 10 µM.
For experiment [6], the target named is Rho-associated protein kinase 1 (Homo sapiens) (UniProt Q13464). In words: Selectivity interaction (ActivX KiNativ screen (kinase selectivity in THP-1 cell lysates)) EUB0000639a ROCK1. It is filed as subcellular. The note with it: lysate.
For experiment [7], the target named is T3, Serine/threonine-protein kinase TAO3 (Homo sapiens) (UniProt Q9H2K8).
T3 sequence (whole entry): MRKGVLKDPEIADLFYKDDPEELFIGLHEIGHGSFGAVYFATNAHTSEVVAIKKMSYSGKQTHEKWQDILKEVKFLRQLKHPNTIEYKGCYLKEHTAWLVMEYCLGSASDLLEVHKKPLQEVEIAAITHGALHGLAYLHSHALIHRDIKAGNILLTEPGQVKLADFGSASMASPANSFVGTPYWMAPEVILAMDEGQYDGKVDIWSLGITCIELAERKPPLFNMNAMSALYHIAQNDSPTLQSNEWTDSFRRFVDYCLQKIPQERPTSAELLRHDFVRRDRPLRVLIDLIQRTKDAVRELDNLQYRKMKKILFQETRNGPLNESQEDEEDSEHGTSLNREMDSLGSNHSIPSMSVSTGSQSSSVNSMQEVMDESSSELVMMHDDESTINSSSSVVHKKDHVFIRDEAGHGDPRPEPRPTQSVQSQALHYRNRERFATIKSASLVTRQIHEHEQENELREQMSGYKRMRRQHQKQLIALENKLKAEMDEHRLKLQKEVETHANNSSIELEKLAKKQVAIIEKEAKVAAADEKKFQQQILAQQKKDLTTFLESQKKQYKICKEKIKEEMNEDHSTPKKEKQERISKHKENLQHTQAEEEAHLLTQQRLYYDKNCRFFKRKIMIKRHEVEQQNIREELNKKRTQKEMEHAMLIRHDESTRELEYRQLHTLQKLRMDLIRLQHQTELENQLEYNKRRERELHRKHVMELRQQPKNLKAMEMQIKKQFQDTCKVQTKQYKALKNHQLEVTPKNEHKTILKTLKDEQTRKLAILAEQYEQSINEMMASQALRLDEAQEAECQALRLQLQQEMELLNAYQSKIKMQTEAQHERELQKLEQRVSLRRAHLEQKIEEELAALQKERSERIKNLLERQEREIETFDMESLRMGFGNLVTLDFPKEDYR
In words: Selectivity interaction (KinomeScan (DiscoverX)) EUB0001049a TAOK3. Particulars: at 1 µM.

Experiment [8] concerns the target Mitogen-activated protein kinase kinase kinase kinase 4 (Homo sapiens, UniProt O95819). In words: Selectivity interaction (Upstate Kinase Profiler service (Millipore)) EUB0000056c MAP4K4. Particulars: at 1 µM.

For 6 compounds, % of inhibition, % of control and IC50 results are on record in ChEMBL document CHEMBL5465560, “Selectivity Literature for EUbOPEN Chemogenomic Library” (2024).

SMILES strings stand for the structures. pIC50: −log10 of the molar value.

Sequence of Rho-associated protein kinase 1 (Homo sapiens) (Q13464 2-1354 limits assumed): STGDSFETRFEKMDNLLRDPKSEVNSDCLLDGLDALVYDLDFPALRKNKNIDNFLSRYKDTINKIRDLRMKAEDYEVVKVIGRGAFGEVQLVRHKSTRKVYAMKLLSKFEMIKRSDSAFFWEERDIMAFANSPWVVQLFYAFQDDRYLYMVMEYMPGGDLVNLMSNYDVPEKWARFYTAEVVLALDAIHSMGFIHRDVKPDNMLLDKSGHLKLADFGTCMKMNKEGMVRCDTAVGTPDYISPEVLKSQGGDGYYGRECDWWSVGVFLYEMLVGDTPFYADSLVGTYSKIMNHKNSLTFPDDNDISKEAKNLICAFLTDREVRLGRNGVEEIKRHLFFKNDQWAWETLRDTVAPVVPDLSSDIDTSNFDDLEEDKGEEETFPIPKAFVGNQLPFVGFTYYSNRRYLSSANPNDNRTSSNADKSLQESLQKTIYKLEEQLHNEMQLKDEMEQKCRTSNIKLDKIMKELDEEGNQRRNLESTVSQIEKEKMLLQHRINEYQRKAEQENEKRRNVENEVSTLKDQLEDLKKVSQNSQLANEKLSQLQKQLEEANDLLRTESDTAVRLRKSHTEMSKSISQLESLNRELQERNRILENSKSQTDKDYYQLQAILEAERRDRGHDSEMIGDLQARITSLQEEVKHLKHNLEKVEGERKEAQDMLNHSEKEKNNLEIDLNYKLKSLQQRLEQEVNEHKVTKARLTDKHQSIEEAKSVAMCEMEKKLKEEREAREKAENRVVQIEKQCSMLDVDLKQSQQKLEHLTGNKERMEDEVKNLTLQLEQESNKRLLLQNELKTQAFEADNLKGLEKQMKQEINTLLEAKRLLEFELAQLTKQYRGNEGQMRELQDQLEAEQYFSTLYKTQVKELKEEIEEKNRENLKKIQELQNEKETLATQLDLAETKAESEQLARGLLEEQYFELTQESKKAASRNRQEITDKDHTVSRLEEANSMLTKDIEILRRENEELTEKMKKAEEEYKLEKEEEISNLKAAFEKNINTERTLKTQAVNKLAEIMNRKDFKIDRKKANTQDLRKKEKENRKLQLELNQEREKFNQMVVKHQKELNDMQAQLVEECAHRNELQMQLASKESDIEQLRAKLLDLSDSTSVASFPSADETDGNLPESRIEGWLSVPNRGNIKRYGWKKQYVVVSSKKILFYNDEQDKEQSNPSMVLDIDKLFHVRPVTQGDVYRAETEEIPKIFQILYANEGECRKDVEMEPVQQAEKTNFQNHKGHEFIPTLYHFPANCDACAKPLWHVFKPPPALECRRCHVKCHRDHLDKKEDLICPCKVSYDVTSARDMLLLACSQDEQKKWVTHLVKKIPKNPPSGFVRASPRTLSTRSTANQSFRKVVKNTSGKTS
Sequence of Mitogen-activated protein kinase kinase kinase kinase 5 (Homo sapiens) (Q9Y4K4 whole entry, looked up): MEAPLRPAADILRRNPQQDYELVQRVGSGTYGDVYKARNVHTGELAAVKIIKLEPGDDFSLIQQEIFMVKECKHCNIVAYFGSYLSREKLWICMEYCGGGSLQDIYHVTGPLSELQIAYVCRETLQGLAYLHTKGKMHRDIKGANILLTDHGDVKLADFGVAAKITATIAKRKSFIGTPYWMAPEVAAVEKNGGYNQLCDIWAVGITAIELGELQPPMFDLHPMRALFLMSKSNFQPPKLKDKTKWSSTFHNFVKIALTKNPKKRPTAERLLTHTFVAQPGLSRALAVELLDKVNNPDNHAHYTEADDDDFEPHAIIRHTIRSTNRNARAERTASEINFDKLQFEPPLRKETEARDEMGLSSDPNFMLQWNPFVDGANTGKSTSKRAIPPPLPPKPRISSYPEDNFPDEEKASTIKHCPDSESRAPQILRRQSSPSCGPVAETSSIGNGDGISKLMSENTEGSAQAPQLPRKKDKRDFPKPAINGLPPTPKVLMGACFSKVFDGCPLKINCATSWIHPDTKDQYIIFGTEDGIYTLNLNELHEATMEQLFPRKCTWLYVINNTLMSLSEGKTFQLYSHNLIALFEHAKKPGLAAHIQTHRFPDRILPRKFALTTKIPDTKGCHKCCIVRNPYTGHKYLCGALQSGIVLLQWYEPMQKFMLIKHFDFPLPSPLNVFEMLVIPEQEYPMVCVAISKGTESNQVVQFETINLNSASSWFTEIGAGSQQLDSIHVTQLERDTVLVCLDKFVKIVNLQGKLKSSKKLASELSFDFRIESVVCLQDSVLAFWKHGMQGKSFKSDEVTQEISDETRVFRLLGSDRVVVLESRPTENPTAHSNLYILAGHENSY
Sequence of CDK9/cyclin T1 (O60563 whole entry): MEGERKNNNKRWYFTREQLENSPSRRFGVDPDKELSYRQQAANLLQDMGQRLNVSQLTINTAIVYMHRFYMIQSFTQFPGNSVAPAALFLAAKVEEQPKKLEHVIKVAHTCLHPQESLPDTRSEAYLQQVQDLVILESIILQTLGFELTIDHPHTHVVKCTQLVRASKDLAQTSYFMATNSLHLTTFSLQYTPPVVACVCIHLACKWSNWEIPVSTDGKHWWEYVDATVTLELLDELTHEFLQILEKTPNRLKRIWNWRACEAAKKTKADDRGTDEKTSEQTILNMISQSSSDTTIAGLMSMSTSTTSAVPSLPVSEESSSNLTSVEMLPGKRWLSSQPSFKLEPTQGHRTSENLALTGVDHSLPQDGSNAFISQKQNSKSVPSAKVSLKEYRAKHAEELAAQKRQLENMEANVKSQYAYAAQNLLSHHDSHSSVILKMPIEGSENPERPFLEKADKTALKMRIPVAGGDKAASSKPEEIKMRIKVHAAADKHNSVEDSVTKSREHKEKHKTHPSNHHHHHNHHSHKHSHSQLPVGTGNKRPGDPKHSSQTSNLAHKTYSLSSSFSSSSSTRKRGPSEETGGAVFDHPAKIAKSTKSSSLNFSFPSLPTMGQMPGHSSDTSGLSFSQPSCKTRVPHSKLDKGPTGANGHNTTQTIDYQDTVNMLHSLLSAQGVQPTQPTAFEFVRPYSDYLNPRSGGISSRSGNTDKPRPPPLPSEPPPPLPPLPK
Sequence of CDK9/cyclin T1 (P50750 whole entry): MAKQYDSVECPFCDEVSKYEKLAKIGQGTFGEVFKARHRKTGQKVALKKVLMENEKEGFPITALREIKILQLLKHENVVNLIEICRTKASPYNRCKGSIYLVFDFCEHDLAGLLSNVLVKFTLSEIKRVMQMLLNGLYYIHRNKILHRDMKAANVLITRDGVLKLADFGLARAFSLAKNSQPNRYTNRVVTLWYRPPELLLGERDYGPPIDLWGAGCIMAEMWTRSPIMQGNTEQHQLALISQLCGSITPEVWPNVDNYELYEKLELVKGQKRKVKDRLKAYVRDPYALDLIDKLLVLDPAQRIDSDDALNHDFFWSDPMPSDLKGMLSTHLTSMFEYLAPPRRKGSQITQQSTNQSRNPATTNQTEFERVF
Sequence of Glycogen synthase kinase-3 beta (P49841 whole entry, looked up): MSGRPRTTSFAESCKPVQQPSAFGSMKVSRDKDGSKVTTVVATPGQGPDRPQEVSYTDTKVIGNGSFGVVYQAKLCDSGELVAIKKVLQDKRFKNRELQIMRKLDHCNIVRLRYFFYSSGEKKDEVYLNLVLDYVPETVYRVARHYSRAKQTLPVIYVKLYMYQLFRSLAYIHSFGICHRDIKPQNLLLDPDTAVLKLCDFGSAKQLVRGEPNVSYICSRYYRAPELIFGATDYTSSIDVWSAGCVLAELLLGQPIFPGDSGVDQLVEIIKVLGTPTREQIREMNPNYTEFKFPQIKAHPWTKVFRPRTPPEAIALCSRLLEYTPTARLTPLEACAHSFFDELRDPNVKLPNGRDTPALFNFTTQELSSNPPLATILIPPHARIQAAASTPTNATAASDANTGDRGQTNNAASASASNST
Sequence of Mitogen-activated protein kinase kinase kinase kinase 4 (O95819 2-1239 limits assumed): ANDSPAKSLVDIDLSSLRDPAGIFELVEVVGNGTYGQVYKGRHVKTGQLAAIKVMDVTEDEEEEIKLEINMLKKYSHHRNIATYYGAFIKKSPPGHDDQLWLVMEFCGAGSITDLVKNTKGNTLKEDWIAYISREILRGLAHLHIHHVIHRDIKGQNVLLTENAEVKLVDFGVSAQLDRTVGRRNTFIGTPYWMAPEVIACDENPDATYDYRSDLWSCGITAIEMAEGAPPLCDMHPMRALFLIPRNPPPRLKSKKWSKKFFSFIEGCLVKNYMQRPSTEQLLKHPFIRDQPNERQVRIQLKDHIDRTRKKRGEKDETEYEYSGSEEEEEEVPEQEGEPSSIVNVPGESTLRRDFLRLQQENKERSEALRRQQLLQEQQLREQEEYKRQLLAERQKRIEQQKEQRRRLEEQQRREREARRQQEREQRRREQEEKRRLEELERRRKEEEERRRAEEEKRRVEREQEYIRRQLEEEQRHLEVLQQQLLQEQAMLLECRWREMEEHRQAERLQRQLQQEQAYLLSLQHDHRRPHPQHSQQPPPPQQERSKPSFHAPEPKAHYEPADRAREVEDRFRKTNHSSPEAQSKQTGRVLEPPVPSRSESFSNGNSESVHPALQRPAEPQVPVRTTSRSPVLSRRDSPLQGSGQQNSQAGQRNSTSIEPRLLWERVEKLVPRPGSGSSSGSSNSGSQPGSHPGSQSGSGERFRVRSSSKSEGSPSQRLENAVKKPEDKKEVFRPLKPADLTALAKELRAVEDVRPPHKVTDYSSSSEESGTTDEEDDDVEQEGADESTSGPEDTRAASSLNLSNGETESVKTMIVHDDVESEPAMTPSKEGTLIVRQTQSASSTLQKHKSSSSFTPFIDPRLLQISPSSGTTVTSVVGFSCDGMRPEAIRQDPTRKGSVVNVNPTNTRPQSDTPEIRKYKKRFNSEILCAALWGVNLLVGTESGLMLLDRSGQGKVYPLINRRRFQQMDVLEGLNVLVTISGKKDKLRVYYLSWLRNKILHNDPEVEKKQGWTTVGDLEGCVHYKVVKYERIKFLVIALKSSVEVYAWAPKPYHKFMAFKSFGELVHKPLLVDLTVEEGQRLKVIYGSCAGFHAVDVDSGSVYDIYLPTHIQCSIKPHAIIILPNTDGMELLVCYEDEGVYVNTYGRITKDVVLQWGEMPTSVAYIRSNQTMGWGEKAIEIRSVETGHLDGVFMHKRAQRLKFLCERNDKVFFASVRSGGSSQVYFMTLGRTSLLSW

Regarding `Cn1cc(-n2cnc3c(NCc4nc5cc(Cl)c(Cl)cc5[nH]4)nc(N4CCOCC4)nc32)cn1`, the % of inhibition in experiment [1] was -2.81%. The same compound came in with a % of control in experiment [2] of 3.28%.

As to `CN(C)C/C=C/C(=O)Nc1ccc(C(=O)N2CCCC(Nc3ncc(Cl)c(-c4c[nH]c5ccccc45)n3)C2)cc1` (configuration not stated), the % of control in experiment [3] was 47%. The same compound showed a pIC50 in experiment [4] of 4.98.

`CNC(=O)Nc1ccc(-c2nc(N3CC4CCC(C3)O4)c3cnn(C4CCC5(CC4)OCCO5)c3n2)cc1`: the % of control in experiment [5] was 69%.

As for `CC[C@@H]1[C@H](F)C(=O)N[C@@H]1COc1nccc2cc(C(N)=O)c(OC)cc12` [ZIMLOVISERTIB], the % of inhibition in experiment [6] (at 0.01 µM) is 12.6%; in experiment [6] (at 0.04 µM), -4.3%; in experiment [6] (at 0.2 µM), -10.6%; in experiment [6] (at 1 µM), 18.3%; in experiment [6] (at 5 µM), 53.9%.

The compound `COc1cc(Nc2nc(C)cc(-c3cnn4nc(OC)ccc34)n2)cc(C(F)(F)F)c1` came in with a % of control in experiment [7] of 75%.

Take `Cc1ccc(-c2ccc3c(ccc4sc5c(c43)NC[C@@H](C)NC5=O)n2)cn1`: the % of inhibition in experiment [8] is 43%.
